This note sets out measurements from US20240299384A1, “METHODS FOR TREATING PULMONARY HYPERTENSION IN PATIENTS WITH LEFT VENTRICULAR ASSIST DEVICE IMPLANTATION” (ACTELION PHARMACEUTICALS LTD, priority 2021, published 2024).

This data set deals with healthy male subjects. Description: Phase 1 open-label study of 75 mg qd macitentan with and without up-titration: safety. Type of data set: in vivo, human. On the procedure:
This is a single-sequence, open-label, single-center, Phase 1 study in healthy male subjects. The study assessed the effect of 75 mg qd administration of macitentan. The study includes a screening phase of 21 days before the first macitentan administration, followed by an open-label treatment phase. Randomization was not used and subjects received the same treatment.
• 29 subjects were enrolled.
Administration of 75 mg qd macitentan started on Day 1. Macitentan was administered every day in the morning between 8:00 and 11:00 with 240 mL of noncarbonated water. One 75-mg macitentan film-coated tablet was thus administered as multiple qd oral doses under fed conditions.
Subjects were planned to take macitentan 75 mg for 15 days. However the study was interrupted on the morning of day 8, i.e. when subjects had received 7 doses of macitentan 75 mg.
Macitentan was administered in an up-titration regimen in the morning between 8:00 and 11:00 with 240 mL of noncarbonated water. One macitentan film-coated tablet (10 mg, 37.5 mg or 75 mg) was administered as multiple qd oral doses under fed conditions on Days 1-9 and Days 11-12, and under fasted conditions on Days 10 and 13. The up-titration regimen consists of 2 qd doses of 10 mg macitentan and 3 qd doses of 37.5 mg macitentan followed by 8 qd doses of 75 mg macitentan. On Days −4, −3, 10 and 13 (i.e., the days when dosing occurred under fasted conditions), no fluid intake apart from the water taken at the time of macitentan administration was allowed from 1 hour before until 1 hour after administration of macitentan.
All reported AEs with onset during the treatment phase were included in the analysis. The effects on cardiovascular variables were evaluated and the following variables were collected: PR (ms), QRS (ms), QT (ms), QTcB (ms), QTcF (ms), heart rate (bpm), and RR. The normal range for vital signs is defined as follows: • Systolic blood pressure: 100-140 mmHg • Diastolic blood pressure: 60-90 mmHg • Pulse rate: 45-90 bpm • Respiratory rate: 8-20 per minute • Body temperature: 35.0° C. to 37.5° C.
An AE is any untoward medical occurrence, i.e., any unfavorable and unintended sign (including an abnormal finding), symptom, or disease temporally associated with the use of macitentan. A treatment-emergent AE is any occurrence that is new in onset or aggravated in severity from the baseline condition. The following are used to assess all AEs: • Related: There is a reasonable causal relationship between macitentan administration and the AE. • Not Related: There is not a reasonable causal relationship between macitentan administration and the AE.
An assessment of AE severity grade was made using the following general categorical descriptors: • Mild: Awareness of symptoms that are easily tolerated, causing minimal discomfort and not interfering with everyday activities. • Moderate: Sufficient discomfort is present to cause interference with normal activity. • Severe: Extreme distress, causing significant impairment of functioning or incapacitation. Prevents normal everyday activities.

Setting [1] is: 75 mg qd, no titration, 6 subjects.

On to `CCCNS(=O)(=O)Nc1ncnc(OCCOc2ncc(Br)cn2)c1-c1ccc(Br)cc1` [Macitentan, propylsulfamic acid [5-(4-bromo-phenyl)-6-[2-(5-bromo-pyrimidin-2-yloxy)-ethoxy]-pyrimidin-4-yl]-amide], for which, where the note is “75 mg qd”, the reduction in hemoglobin is at most 2 g/dL; the “vital signs, ECG and lab parameters” value is reported as “no clinically significant changes”. Also, the “severity of AEs overall” value (75 mg qd, AEs reported from Day 2 onwards) is reported as “mainly mild”. Also, under setting [1], the “Photophobia, Severity of AEs (No titration)” value is recorded as “All mild” and the “Sinusitis/rhinitis/nasal congestion, Severity of AEs (No titration)” value is “All mild”. The “tolerability with up-titration regimen” value (75 mg, up-titration vs no up-titration) is listed as “improved tolerability”. Also, the “resolution of AEs” value (four days after stopping macitentan) is “most of the AEs resolved”. Besides, the “Sinusitis/rhinitis/nasal congestion, Severity of AEs (With titration)” value (up-titration 10 mg, 37.5 mg, 75 mg qd, 6 subjects) is “Mild, less”. In addition, where the note is “up-titration regimen cohort”, the completion of treatment result is listed as “All subjects completed treatment”.
